According to US9765056B2, “Indole and pyrrole compounds, a process for their preparation and pharmaceutical compositions containing them” (LES LABORATOIRES SERVIER, priority 2013, dated 2017):
Counter-ions that a name gives are not always drawn.

Experiments:
[1] = test system: RS4;11 leukaemia tumour line; test: In vitro cytotoxicity, Microculture Tetrazolium Assay (MTT); format: cell-based; conditions: Homo sapiens; RS4;11 cells, 48 hours exposure
Protocol: The cytotoxicity studies were carried out on the RS4;11 leukaemia tumour line.
The cells are distributed onto microplates and exposed to the test compounds for 48 hours. The cell viability is then quantified by a colorimetric assay, the Microculture Tetrazolium Assay (Cancer Res., 1987, 47, 939-942).

Bcl-2 protein = Bcl-2 protein (histag-Bcl-2, UniProtKB P10415) (Homo sapiens (Human), UniProt P10415); test: Inhibition of Bcl-2 by the fluorescence polarisation technique; format: binding; conditions: fluorescence polarisation test; method A, or method B where underlined (underlining not visible); read-out: IC50 (nM) Bcl-2 FP
Bcl-2 protein, sequence (P10415 whole entry): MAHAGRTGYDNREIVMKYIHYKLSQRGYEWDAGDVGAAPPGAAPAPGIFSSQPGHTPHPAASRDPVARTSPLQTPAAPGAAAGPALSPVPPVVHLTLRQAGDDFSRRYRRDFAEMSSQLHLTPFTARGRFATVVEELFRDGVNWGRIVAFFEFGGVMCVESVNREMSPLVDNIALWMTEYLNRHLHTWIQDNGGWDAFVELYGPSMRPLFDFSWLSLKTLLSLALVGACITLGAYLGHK
Excerpt: Inhibition of Bcl-2 by the fluorescence polarisation technique

Row | SMILES | IC50 [1] [nM] | IC50 (Bcl-2 protein) [nM]
1 | Cc1cc(C(=O)N(c2ccccc2)c2ccc(O)cc2)cn1-c1cccc(Cl)c1C(=O)N1Cc2ccccc2C[C@H]1CN(C)C [Example 18, 1-(3-Chloro-2-{[(3S)-3-[(dimethylamino)methyl]-3,4-dihydroisoquinolin-2(1H)-yl]carbonyl}phenyl)-N-(4-hydroxyphenyl)-5-methyl-N-phenyl-1H-pyrrole-3-carboxamide] | 1130 | 44.6
2 | Cc1ccc(N(C(=O)c2cn(-c3cc4c(cc3C(=O)N3Cc5ccccc5C[C@H]3CN3CCN(C)CC3)OCO4)c3ccccc23)c2ccc3[nH]ccc3c2)cc1 [Example 55, N-(1H-Indol-5-yl)-N-(4-methylphenyl)-1-(6-{[(3S)-3-[(4-methylpiperazin-1-yl)methyl]-3,4-dihydroisoquinolin-2(1H)-yl]carbonyl}-1,3-benzodioxol-5-yl)-1H-indole-3-carboxamide] | 1020 | 57.2
3 | COc1cc(-n2cc(C(=O)N(c3ccccc3)c3ccc(F)cc3)c3ccccc32)c(C(=O)N2Cc3ccccc3C[C@H]2CN2CCN(C)CC2)cc1O [Example 190, N-(4-Fluorophenyl)-1-{4-hydroxy-5-methoxy-2-[(3S)-3-[(4-methylpiperazin-1-yl)methyl]-1,2,3,4-tetrahydroisoquinoline-2-carbonyl]phenyl}-N-phenyl-1H-indole-3-carboxamide dihydrochloride] | 645 | 13.6
4 | Cc1cc(C(=O)N(c2ccccc2)c2ccc(O)cc2)cn1-c1cc(C(F)(F)F)ccc1C(=O)N1Cc2ccccc2C[C@H]1CN(C)C [Example 12, 1-[2-{[(3S)-3-[(Dimethylamino)methyl]-3,4-dihydroisoquinolin-2(1H)-yl]carbonyl}-5-(trifluoromethyl)phenyl]-N-(4-hydroxyphenyl)-5-methyl-N-phenyl-1H-pyrrole-3-carboxamide] | 1810 | 120
5 | CN1CCN(C[C@@H]2Cc3ccccc3CN2C(=O)c2cc3c(cc2-n2cc(C(=O)N(c4ccc(O)cc4)c4ccc(OC(F)(F)F)cc4)c4ccccc42)OCO3)CC1 [Example 51, N-(4-Hydroxyphenyl)-1-(6-{[(3S)-3-[(4-methylpiperazin-1-yl)methyl]-3,4-dihydroisoquinolin-2(1H)-yl]carbonyl}-1,3-benzodioxol-5-yl)-N-[4-(trifluoro-methoxy)phenyl]-1H-indole-3-carboxamide] | 155 | 6.9
6 | CC(C)CC1Oc2cc(C(=O)N3Cc4ccccc4C[C@H]3CN)c(-n3cc(C(=O)N(c4ccccc4)c4ccc(O)cc4)c4ccccc43)cc2O1 (stereo partly drawn) [Example 158, 1-{6-[(3S)-3-(Aminomethyl)-1,2,3,4-tetrahydroisoquinoline-2-carbonyl]-2-(2-methylpropyl)-2H-1,3-benzodioxol-5-yl}-N-(4-hydroxyphenyl)-N-phenyl-1H-indole-3-carboxamide] | 834 | 54.1
7 | CN1CCN(C[C@@H]2Cc3ccccc3CN2C(=O)c2cc3c(cc2-n2cc(C(=O)N(c4ccc(O)cc4)c4ccc(Cl)cc4)c4ccccc42)OCO3)CC1 [Example 31, N-(4-Chlorophenyl)-N-(4-hydroxyphenyl)-1-(6-{[(3S)-3-[(4-methylpiperazin-1-yl)methyl]-3,4-dihydroisoquinolin-2(1H)-yl]carbonyl}-1,3-benzodioxol-5-yl)-1H-indole-3-carboxamide] | 71.4 | 5.5
8 | CN1CCN(C[C@@H]2Cc3ccccc3CN2C(=O)c2cc3c(cc2-n2cc(C(=O)N(c4ccc(O)cc4)c4cccc(Oc5ccccc5)c4)c4ccccc42)OCO3)CC1 [Example 39, N-(4-Hydroxyphenyl)-1-(6-{[(3S)-3-[(4-methylpiperazin-1-yl)methyl]-3,4-dihydroisoquinolin-2(1H)-yl]carbonyl}-1,3-benzodioxol-5-yl)-N-(3-phenoxyphenyl)-1H-indole-3-carboxamide hydrochloride] | 263 | 12.5
9 | Cc1cc(C(=O)N(c2ccccc2)c2ccc(O)cc2)cn1-c1cc2c(cc1C(=O)N1Cc3ccccc3C[C@H]1CN1CCOCC1)OCO2 [Example 108, N-(4-Hydroxyphenyl)-5-methyl-1-(6-{[(3S)-3-(morpholin-4-ylmethyl)-3,4-dihydroisoquinolin-2(1H)-yl]carbonyl}-1,3-benzodioxol-5-yl)-N-phenyl-1H-pyrrole-3-carboxamide hydrochloride] | 544 | 35.5
10 | CN1CCN(C[C@@H]2Cc3ccccc3CN2C(=O)c2ccc(Br)cc2-n2cc(C(=O)N(c3ccc(O)cc3)c3ccc4[nH]ccc4c3)c3ccccc32)CC1 [Example 48, 1-(5-Bromo-2-{[(3S)-3-[(4-methylpiperazin-1-yl)methyl]-3,4-dihydroisoquinolin-2(1H)-yl]carbonyl}phenyl)-N-(4-hydroxyphenyl)-N-(1H-indol-5-yl)-1H-indole-3-carboxamide] | 93.9 | 10.5
11 | Cc1cc(C(=O)N(c2ccc(O)cc2)c2ccc3c(ccn3C)c2)cn1-c1cc2c(cc1C(=O)N1Cc3ccccc3C[C@H]1CN1CCOCC1)OCO2 [Example 109, N-(4-Hydroxyphenyl)-5-methyl-N-(1-methyl-1H-indol-5-yl)-1-(6-{[(3S)-3-(morpholin-4-ylmethyl)-3,4-dihydroisoquinolin-2(1H)-yl]carbonyl}-1,3-benzodioxol-5-yl)-1H-pyrrole-3-carboxamide hydrochloride] | 116 | 4.4
12 | NC[C@@H]1Cc2ccccc2CN1C(=O)c1cc2c(cc1-n1nc(C(=O)N(c3ccccc3)c3ccccc3)c3ccccc31)OCO2 [Example 132, 1-{6-[(3S)-3-(Aminomethyl)-1,2,3,4-tetrahydroisoquinoline-2-carbonyl]-2H-1,3-benzodioxol-5-yl}-N,N-diphenyl-1H-indazole-3-carboxamide] | 1860 | 31.7
13 | CN1CCN(C[C@@H]2Cc3ccccc3CN2C(=O)c2cc3c(cc2-n2cc(C(=O)N(c4ccc(O)c(Cl)c4)c4ccc5[nH]ccc5c4)c4ccccc42)OCO3)CC1 [Example 82, N-(3-Chloro-4-hydroxyphenyl)-N-(1H-indol-5-yl)-1-(6-{[(3S)-3-[(4-methylpiperazin-1-yl)methyl]-3,4-dihydroisoquinolin-2(1H)-yl]carbonyl}-1,3-benzodioxol-5-yl)-1H-indole-3-carboxamide hydrochloride] | 373 | 17.6
14 | Cc1cc(C(=O)N(c2ccccc2)c2ccc(O)cc2)cn1-c1cc(Cl)ccc1C(=O)N1Cc2ccccc2C[C@H]1CN1CCN(C)CC1 [Example 26, 1-(5-Chloro-2-{[(3S)-3-[(4-methylpiperazin-1-yl)methyl]-3,4-dihydroisoquinolin-2(1H)-yl]carbonyl}phenyl)-N-(4-hydroxyphenyl)-5-methyl-N-phenyl-1H-pyrrole-3-carboxamide] | 171 | 7.5
15 | CCCCN(C(=O)c1cn(-c2cc3c(cc2C(=O)N2Cc4ccccc4C[C@H]2CN2CCN(C)CC2)OCO3)c2ccccc12)c1ccc(O)cc1 [Example 33, N-Butyl-N-(4-hydroxyphenyl)-1-(6-{[(3S)-3-[(4-methylpiperazin-1-yl)methyl]-3,4-dihydroisoquinolin-2(1H)-yl]carbonyl}-1,3-benzodioxol-5-yl)-1H-indole-3-carboxamide] | 199 | 4.4
16 | Cc1cc(C(=O)N(c2ccc(O)cc2)c2cccc(N3CCN(C)CC3)c2)cn1-c1cc2c(cc1C(=O)N1Cc3ccccc3C[C@H]1C)OCO2 [Example 112, N-(4-Hydroxyphenyl)-5-methyl-1-(6-{[(3R)-3-methyl-3,4-dihydroisoquinolin-2(1H)-yl]carbonyl}-1,3-benzodioxol-5-yl)-N-[3-(4-methylpiperazin-1-yl)phenyl]-1H-pyrrole-3-carboxamide hydrochloride] | 281 | 11.8
17 | Cc1cc(C(=O)N(c2ccc(O)cc2)c2ccc3c(ccn3C)c2)cn1-c1cc(Br)ccc1C(=O)N1Cc2ccccc2C[C@H]1CN1CCN(C)CC1 [Example 70, 1-(5-Bromo-2-{[(3S)-3-[(4-methylpiperazin-1-yl)methyl]-3,4-dihydroisoquinolin-2(1H)-yl]carbonyl}phenyl)-N-(4-hydroxyphenyl)-5-methyl-N-(1-methyl-1H-indol-5-yl)-1H-pyrrole-3-carboxamide hydrochloride] | 63.8 | 2.9
18 | NC[C@@H]1Cc2ccccc2CN1C(=O)c1cc(NC(=O)CSc2ccccc2)ccc1-n1nc(C(=O)N(c2ccccc2)c2ccccc2)c2ccccc21 [Example 149, 1-{2-[(3S)-3-(Aminomethyl)-1,2,3,4-tetrahydroisoquinoline-2-carbonyl]-4-[2-(phenylsulphanyl)acetamido]phenyl}-N,N-diphenyl-1H-indazole-3-carboxamide] | 340 | 21.6
19 | CN1CCN(C[C@@H]2Cc3ccccc3CN2C(=O)c2cc3c(cc2-n2cc(C(=O)N(c4ccc(O)cc4)c4ccc5c(c4)CCN5)c4ccccc42)OCO3)CC1 [Example 47, N-(2,3-Dihydro-1H-indol-5-yl)-N-(4-hydroxyphenyl)-1-(6-{[(3S)-3-[(4-methylpiperazin-1-yl)methyl]-3,4-dihydroisoquinolin-2(1H)-yl]carbonyl}-1,3-benzodioxol-5-yl)-1H-indole-3-carboxamide] | 50.3 | 9.2
20 | CN1CCN(C[C@@H]2Cc3ccccc3CN2C(=O)c2cc3c(cc2-n2cc(C(=O)N(c4ccc(O)cc4)c4ccc(F)c(F)c4)c4ccccc42)OCO3)CC1 [Example 56, N-(3,4-Difluorophenyl)-N-(4-hydroxyphenyl)-1-(6-{[(3S)-3-[(4-methylpiperazin-1-yl)methyl]-3,4-dihydroisoquinolin-2(1H)-yl]carbonyl}-1,3-benzodioxol-5-yl)-1H-indole-3-carboxamide] | 135 | 5
